# Assay: Ready-to-use formulation stability at 25° C./60% RH, 5 mg/mL (R,R)-pyrodach-2 in 10 mM Bicarbonate Buffer at pH 8.6, 10 mL vials
# Assay type: physicochemical
structure (smiles),measurement,setting,value
"O=P1(O)OP(=O)(O)[O][Pt]2([NH][C@@H]3CCCC[C@H]3[NH]2)[O]1 (stereo partly drawn) [(R,R)-pyrodach-2, (R,R)-trans-1,2-cyclohexanediamine-(dihydrogenpyrophosphato)platinum(II)]",Potency (Assay),1 month,98.9%
same,Purity (% Area),1 month,97.44%
same,Unknown Impurities RRT~0.29,1 month,0.16%
same,Unknown Impurities RRT~0.42,1 month,0.21%
same,Unknown Impurities RRT~0.49,1 month,0.75%
same,Unknown Impurities RRT~0.59,1 month,0.15%
same,Unknown Impurities RRT~0.73,1 month,1.03%
same,Unknown Impurities RRT~1.82,1 month,"ND (ND = Not Detected, or <0.05%)"
same,Unknown Impurities RRT~2.85,1 month,"ND (ND = Not Detected, or <0.05%)"
same,Unknown Impurities RRT~3.00,1 month,"ND (ND = Not Detected, or <0.05%)"
same,Unknown Impurities RRT~3.15,1 month,"ND (ND = Not Detected, or <0.05%)"
same,Unknown Impurities RRT~3.30,1 month,"ND (ND = Not Detected, or <0.05%)"
same,Unknown Impurities RRT~3.45,1 month,"ND (ND = Not Detected, or <0.05%)"
same,Unknown Impurities RRT~3.74,1 month,0.08%
same,Unknown Impurities RRT~4.27,1 month,"ND (ND = Not Detected, or <0.05%)"
same,Unknown Impurities RRT~4.99,1 month,"ND (ND = Not Detected, or <0.05%)"
same,pH,1 month,8.68
same,Potency (Assay),1 week,101.7%
same,Purity (% Area),1 week,97.74%
same,Unknown Impurities RRT~0.29,1 week,0.11%
same,Unknown Impurities RRT~0.42,1 week,0.05%
same,Unknown Impurities RRT~0.49,1 week,0.78%
same,Unknown Impurities RRT~0.59,1 week,0.06%
same,Unknown Impurities RRT~0.73,1 week,1.12%
same,Unknown Impurities RRT~1.82,1 week,"ND (ND = Not Detected, or <0.05%)"
same,Unknown Impurities RRT~2.85,1 week,"ND (ND = Not Detected, or <0.05%)"
same,Unknown Impurities RRT~3.00,1 week,"ND (ND = Not Detected, or <0.05%)"
same,Unknown Impurities RRT~3.15,1 week,"ND (ND = Not Detected, or <0.05%)"
same,Unknown Impurities RRT~3.30,1 week,"ND (ND = Not Detected, or <0.05%)"
same,Unknown Impurities RRT~3.45,1 week,"ND (ND = Not Detected, or <0.05%)"
same,Unknown Impurities RRT~3.74,1 week,"ND (ND = Not Detected, or <0.05%)"
same,Unknown Impurities RRT~4.27,1 week,"ND (ND = Not Detected, or <0.05%)"
same,Unknown Impurities RRT~4.99,1 week,"ND (ND = Not Detected, or <0.05%)"
same,pH,1 week,8.57
same,Potency (Assay),2 month,100.4%
same,Purity (% Area),2 month,96.45%
same,Unknown Impurities RRT~0.29,2 month,0.19%
same,Unknown Impurities RRT~0.42,2 month,0.56%
same,Unknown Impurities RRT~0.49,2 month,0.79%
same,Unknown Impurities RRT~0.59,2 month,0.26%
same,Unknown Impurities RRT~0.73,2 month,0.97%
same,Unknown Impurities RRT~1.82,2 month,"ND (ND = Not Detected, or <0.05%)"
same,Unknown Impurities RRT~2.85,2 month,0.12%
same,Unknown Impurities RRT~3.00,2 month,"ND (ND = Not Detected, or <0.05%)"
same,Unknown Impurities RRT~3.15,2 month,"ND (ND = Not Detected, or <0.05%)"
same,Unknown Impurities RRT~3.30,2 month,"ND (ND = Not Detected, or <0.05%)"
same,Unknown Impurities RRT~3.45,2 month,0.05%
same,Unknown Impurities RRT~3.74,2 month,0.31%
same,Unknown Impurities RRT~4.27,2 month,"ND (ND = Not Detected, or <0.05%)"
same,Unknown Impurities RRT~4.99,2 month,0.07%
same,pH,2 month,8.73
same,Potency (Assay),2 week,99.9%
same,Purity (% Area),2 week,97.77%
same,Unknown Impurities RRT~0.29,2 week,0.12%
same,Unknown Impurities RRT~0.42,2 week,0.10%
same,Unknown Impurities RRT~0.49,2 week,0.77%
same,Unknown Impurities RRT~0.59,2 week,"ND (ND = Not Detected, or <0.05%)"
same,Unknown Impurities RRT~0.73,2 week,1.17%
same,Unknown Impurities RRT~1.82,2 week,"ND (ND = Not Detected, or <0.05%)"
same,Unknown Impurities RRT~2.85,2 week,"ND (ND = Not Detected, or <0.05%)"
same,Unknown Impurities RRT~3.00,2 week,"ND (ND = Not Detected, or <0.05%)"
same,Unknown Impurities RRT~3.15,2 week,"ND (ND = Not Detected, or <0.05%)"
same,Unknown Impurities RRT~3.30,2 week,"ND (ND = Not Detected, or <0.05%)"
same,Unknown Impurities RRT~3.45,2 week,"ND (ND = Not Detected, or <0.05%)"
same,Unknown Impurities RRT~3.74,2 week,"ND (ND = Not Detected, or <0.05%)"
same,Unknown Impurities RRT~4.27,2 week,"ND (ND = Not Detected, or <0.05%)"
same,Unknown Impurities RRT~4.99,2 week,"ND (ND = Not Detected, or <0.05%)"
same,pH,2 week,8.64
same,Potency (Assay),3 month,101.6%
same,Purity (% Area),3 month,96.08%
same,Unknown Impurities RRT~0.29,3 month,0.27%
same,Unknown Impurities RRT~0.42,3 month,0.76%
same,Unknown Impurities RRT~0.49,3 month,0.78%
same,Unknown Impurities RRT~0.59,3 month,0.25%
same,Unknown Impurities RRT~0.73,3 month,0.92%
same,Unknown Impurities RRT~1.82,3 month,"ND (ND = Not Detected, or <0.05%)"
same,Unknown Impurities RRT~2.85,3 month,0.17%
same,Unknown Impurities RRT~3.00,3 month,"ND (ND = Not Detected, or <0.05%)"
same,Unknown Impurities RRT~3.15,3 month,"ND (ND = Not Detected, or <0.05%)"
same,Unknown Impurities RRT~3.30,3 month,"ND (ND = Not Detected, or <0.05%)"
same,Unknown Impurities RRT~3.45,3 month,"ND (ND = Not Detected, or <0.05%)"
same,Unknown Impurities RRT~3.74,3 month,0.40%
same,Unknown Impurities RRT~4.27,3 month,0.06%
same,Unknown Impurities RRT~4.99,3 month,0.14%
same,pH,3 month,9.01
same,Potency (Assay),3 week,100.3%
same,Purity (% Area),3 week,97.33%
same,Unknown Impurities RRT~0.29,3 week,0.16%
same,Unknown Impurities RRT~0.42,3 week,0.15%
same,Unknown Impurities RRT~0.49,3 week,0.76%
same,Unknown Impurities RRT~0.59,3 week,0.12%
same,Unknown Impurities RRT~0.73,3 week,1.26%
same,Unknown Impurities RRT~1.82,3 week,"ND (ND = Not Detected, or <0.05%)"
